Values of other authors in US4127536A, “Novel tricosapeptides, intermediates therefor and pharmaceutical compositions and methods employing said tricosapeptides” (priority 1977, dated 1978).

Columns and labels:
rat = conditions: injected directly into the brain of the rat
[1] = tested on: partially purified brain opiate receptor sites; conditions: natural peptide

Substance: H-Tyr-Gly-Gly-Phe-Met-OH [methionine enkephalin]
- analgesic activity (rat): only weak analgesic agent of short duration
- binding to partially purified brain opiate receptor sites [1]: binds stereo-specifically
